# Experimental data published in patent US12492188B2, “1H-benzo[D]imidazole derivatives as TLR9 inhibitors for the treatment of fibrosis” (BRISTOL-MYERS SQUIBB COMPANY, priority 2020, dated 2025).
# Read-outs that look alike come from different tables or passages of the source.
# How the values were obtained:
# Type in all cases: cell-based
# [1] = molecular target: T1, human TLR9 (Homo sapiens, UniProt Q9NR96); experiment: TLR9 inhibition reporter assay (HEK-Blue cells, secreted embryonic alkaline phosphatase reporter); details: HEK-Blue cells overexpressing human TLR9, stimulated with ODN2006 5 nM
# T1 construct: host or cells: HEK-Blue cells (HEK293-derived reporter line)
# T1 sequence (Q9NR96 26-1032): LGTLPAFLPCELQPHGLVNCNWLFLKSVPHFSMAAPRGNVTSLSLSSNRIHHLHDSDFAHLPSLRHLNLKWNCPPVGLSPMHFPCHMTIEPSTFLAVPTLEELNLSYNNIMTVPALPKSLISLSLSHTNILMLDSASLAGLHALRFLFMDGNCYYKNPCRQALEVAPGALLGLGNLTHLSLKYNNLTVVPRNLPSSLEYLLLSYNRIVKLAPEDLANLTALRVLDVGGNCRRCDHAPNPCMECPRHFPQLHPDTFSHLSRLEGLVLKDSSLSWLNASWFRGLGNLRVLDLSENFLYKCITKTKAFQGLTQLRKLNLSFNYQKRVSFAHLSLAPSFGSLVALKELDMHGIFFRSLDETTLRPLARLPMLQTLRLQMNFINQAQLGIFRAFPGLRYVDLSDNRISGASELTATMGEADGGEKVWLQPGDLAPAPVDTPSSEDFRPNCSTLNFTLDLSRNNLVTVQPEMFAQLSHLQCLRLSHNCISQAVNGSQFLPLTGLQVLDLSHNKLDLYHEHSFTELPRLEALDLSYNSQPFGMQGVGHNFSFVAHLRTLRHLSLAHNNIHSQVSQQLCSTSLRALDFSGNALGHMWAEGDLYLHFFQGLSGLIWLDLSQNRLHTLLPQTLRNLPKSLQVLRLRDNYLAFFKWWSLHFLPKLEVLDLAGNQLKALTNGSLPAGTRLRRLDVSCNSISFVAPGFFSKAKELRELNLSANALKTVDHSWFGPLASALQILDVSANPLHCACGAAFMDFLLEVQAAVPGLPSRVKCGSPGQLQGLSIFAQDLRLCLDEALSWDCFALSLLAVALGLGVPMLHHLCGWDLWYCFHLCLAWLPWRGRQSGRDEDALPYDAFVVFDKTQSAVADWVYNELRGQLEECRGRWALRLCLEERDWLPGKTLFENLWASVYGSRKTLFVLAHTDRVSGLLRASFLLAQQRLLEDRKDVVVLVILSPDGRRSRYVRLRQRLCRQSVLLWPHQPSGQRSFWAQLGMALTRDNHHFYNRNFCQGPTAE
# Procedure, shortened: (§1)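 Read-out is SEAP colour from HEK-Blue Detection medium after 22 h at 37 °C, converted to percent inhibition between agonist-plus-DMSO and reference-inhibitor wells. Receptor-overexpressing HEK-Blue cells received compound over 0.05 nM–50 μM for 30 min before agonist: gardiquimod 7.5 μM for TLR7, R848 15.9 μM for TLR8, ODN2006 5 nM for TLR9.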
# [2] = molecular target: T2, human TLR7 (Homo sapiens, UniProt Q9NYK1); experiment: TLR7 inhibition reporter assay (HEK-Blue cells, secreted embryonic alkaline phosphatase reporter); details: HEK-Blue cells overexpressing human TLR7, stimulated with gardiquimod 7.5 μM; read-out: TLR 7 IC50
# T2 construct: host or cells: HEK-Blue cells (HEK293-derived reporter line)
# T2 sequence (Q9NYK1 27-1049): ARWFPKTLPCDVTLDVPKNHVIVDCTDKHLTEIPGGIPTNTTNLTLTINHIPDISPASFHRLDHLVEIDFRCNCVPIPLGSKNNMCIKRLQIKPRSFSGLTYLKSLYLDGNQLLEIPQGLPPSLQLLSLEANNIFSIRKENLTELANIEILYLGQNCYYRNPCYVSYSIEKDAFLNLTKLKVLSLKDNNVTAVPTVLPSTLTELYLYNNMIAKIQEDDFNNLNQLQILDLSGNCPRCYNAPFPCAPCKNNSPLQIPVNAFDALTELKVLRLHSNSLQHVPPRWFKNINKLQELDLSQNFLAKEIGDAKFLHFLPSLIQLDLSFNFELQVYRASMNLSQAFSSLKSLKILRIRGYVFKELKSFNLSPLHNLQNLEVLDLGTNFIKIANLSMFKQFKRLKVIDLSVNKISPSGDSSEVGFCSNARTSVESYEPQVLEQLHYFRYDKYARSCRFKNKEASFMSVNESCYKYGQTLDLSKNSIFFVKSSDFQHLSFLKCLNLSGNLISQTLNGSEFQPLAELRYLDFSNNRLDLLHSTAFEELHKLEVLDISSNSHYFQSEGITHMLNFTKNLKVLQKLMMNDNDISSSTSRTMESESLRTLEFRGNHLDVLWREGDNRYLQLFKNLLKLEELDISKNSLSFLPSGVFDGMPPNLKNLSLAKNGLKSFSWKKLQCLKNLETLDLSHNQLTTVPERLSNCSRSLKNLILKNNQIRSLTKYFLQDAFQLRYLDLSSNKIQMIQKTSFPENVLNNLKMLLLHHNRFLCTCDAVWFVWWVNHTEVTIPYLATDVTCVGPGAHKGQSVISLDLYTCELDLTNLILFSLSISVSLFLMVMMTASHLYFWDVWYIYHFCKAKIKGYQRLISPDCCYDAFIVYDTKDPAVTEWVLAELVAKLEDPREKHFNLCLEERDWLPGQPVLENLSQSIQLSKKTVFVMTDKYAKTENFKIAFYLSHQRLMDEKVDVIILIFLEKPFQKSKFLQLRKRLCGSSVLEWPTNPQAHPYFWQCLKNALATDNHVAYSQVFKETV
# Procedure, shortened: as §1
# [3] = molecular target: T3, human TLR8 (Homo sapiens, UniProt Q9NR97); experiment: TLR8 inhibition reporter assay (HEK-Blue cells, secreted embryonic alkaline phosphatase reporter); details: HEK-Blue cells overexpressing human TLR8, stimulated with R848 15.9 μM; read-out: TLR 8 IC50
# T3 construct: host or cells: HEK-Blue cells (HEK293-derived reporter line)
# T3 sequence (Q9NR97 27-1041): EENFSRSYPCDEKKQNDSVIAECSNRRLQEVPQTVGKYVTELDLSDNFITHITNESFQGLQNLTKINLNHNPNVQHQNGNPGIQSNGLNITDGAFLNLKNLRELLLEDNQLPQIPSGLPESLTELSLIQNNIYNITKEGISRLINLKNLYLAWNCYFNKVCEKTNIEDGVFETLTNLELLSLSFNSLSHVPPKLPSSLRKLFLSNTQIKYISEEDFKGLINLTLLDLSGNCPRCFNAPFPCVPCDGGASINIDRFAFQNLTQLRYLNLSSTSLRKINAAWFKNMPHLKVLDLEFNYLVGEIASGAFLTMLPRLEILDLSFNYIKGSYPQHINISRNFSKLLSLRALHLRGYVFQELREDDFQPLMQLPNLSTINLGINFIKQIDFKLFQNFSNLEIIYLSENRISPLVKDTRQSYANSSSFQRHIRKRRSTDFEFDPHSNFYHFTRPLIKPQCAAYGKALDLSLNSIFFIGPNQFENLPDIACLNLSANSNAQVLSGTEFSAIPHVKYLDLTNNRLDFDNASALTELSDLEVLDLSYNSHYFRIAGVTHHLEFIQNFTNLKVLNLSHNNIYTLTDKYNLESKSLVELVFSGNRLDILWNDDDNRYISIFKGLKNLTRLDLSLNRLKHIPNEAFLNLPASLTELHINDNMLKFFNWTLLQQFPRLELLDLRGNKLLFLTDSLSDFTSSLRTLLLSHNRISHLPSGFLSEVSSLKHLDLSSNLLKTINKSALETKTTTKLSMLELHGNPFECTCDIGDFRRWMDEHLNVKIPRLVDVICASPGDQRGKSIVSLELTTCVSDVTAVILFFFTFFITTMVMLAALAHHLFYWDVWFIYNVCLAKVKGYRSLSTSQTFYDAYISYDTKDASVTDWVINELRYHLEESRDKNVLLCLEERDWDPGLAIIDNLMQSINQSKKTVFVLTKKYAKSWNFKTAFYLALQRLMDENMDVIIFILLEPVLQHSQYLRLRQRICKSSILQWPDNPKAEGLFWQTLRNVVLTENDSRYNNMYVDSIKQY
# Procedure, shortened: as §1
# [4] = 22 hour incubation, reporter readout
"IC50 [1, 4]",IC50 [2],IC50 [3],IC50 ([1]; read-out: TLR 9 IC50),SMILES
33 nM,5000 nM,> 50000 nM,,"COc1ccc(-c2nc3c(C)cc(C4CCN(C5CCN(C(C)C)CC5)CC4)cc3[nH]2)cc1OC [Example 11, 2-(3,4-dimethoxyphenyl)-6-(1′-isopropyl-[1,4′-bipiperidin]-4-yl)-4-methyl-1H-benzo[d]imidazole]"
60 nM,22000 nM,> 50000 nM,,"COc1ccc(-c2nc3c(C)cc(C4CCN(C5CC6(C5)CN(C(C)C)C6)CC4)cc3[nH]2)cc1OC [Example 12, 2-(3,4-dimethoxyphenyl)-6-(1-(2-isopropyl-2-azaspiro[3.3]heptan-6-yl)piperidin-4-yl)-4-methyl-1H-benzo[d]imidazole]"
620 nM,> 50000 nM,> 50000 nM,617 nM,"COc1ccc(-c2nc3c(C)cc(C4CCN(C5CCNCC5)CC4)cc3[nH]2)cc1OC [Example 13, 6-([1,4′-bipiperidin]-4-yl)-2-(3,4-dimethoxyphenyl)-4-methyl-1H-benzo[d]imidazole tris(2,2,2-trifluoroacetate)]"
510 nM,> 50000 nM,> 50000 nM,509 nM,"COc1ccc(-c2nc3c(C)cc(C4CCN(C5CCN(C(=O)C(C)C)CC5)CC4)cc3[nH]2)cc1OC [Example 14, 1-(4-(2-(3,4-dimethoxyphenyl)-4-methyl-1H-benzo[d]imidazol-6-yl)-[1,4′-bipiperidin]-1′-yl)-2-methylpropan-1-one]"
19 nM,7100 nM,> 50000 nM,,"COc1ccc(-c2nc3c(C)cc(C4CCN(C5CCN(CC(C)C)CC5)CC4)cc3n2C)cc1OC [Example 15, 2-(3,4-dimethoxyphenyl)-6-(1′-isobutyl-[1,4′-bipiperidin]-4-yl)-1,4-dimethyl-1H-benzo[d]imidazole tris(2,2,2-trifluoroacetate)]"
100 nM,10000 nM,> 50000 nM,10.4 nM,"COc1ccc(-c2nc3c(C)cc(C4CCN(C5CC6(C5)CN(C(C)C)C6)CC4)cc3n2C)cc1OC [Example 16, 2-(3,4-dimethoxyphenyl)-6-(1-(2-isopropyl-2-azaspiro[3.3]heptan-6-yl)piperidin-4-yl)-1,4-dimethyl-1H-benzo[d]imidazole tris(2,2,2-trifluoroacetate)]"
7.6 nM,24000 nM,> 50000 nM,,"Cc1cc(C2CCN(C3CCN(C(C)C)CC3)CC2)cc2c1nc(-c1ccc(S(C)(=O)=O)cc1)n2C [Example 22, 6-(1′-isopropyl-[1,4′-bipiperidin]-4-yl)-1,4-dimethyl-2-(4-(methylsulfonyl)phenyl)-1H-benzo[d]imidazole]"
160 nM,8800 nM,> 50000 nM,159 nM,"COc1ccc(-c2nc3c(C)cc(C4CCN(C5CCN(C(C)C)CC5)CC4)cc3n2C)cc1F [Example 23, 2-(3-fluoro-4-methoxyphenyl)-6-(1′-isopropyl-[1,4′-bipiperidin]-4-yl)-1,4-dimethyl-1H-benzo[d]imidazole]"
48 nM,3000 nM,> 50000 nM,,"COc1ccc(-c2nc3c(C)cc(C4CCN(C5CCN(C(C)C)CC5)CC4)cc3[nH]2)cc1F [Example 24, 2-(3-fluoro-4-methoxyphenyl)-6-(1′-isopropyl-[1,4′-bipiperidin]-4-yl)-4-methyl-1H-benzo[d]imidazole]"
160 nM,3000 nM,> 50000 nM,164 nM,"Cc1cc(C2CCN(C3CCN(CC(C)C)CC3)CC2)cc2[nH]c(-c3ccc4nccn4c3)nc12 [Example 25, 2-(imidazo[1,2-a]pyridin-6-yl)-6-(1′-isobutyl-[1,4′-bipiperidin]-4-yl)-4-methyl-1H-benzo[d]imidazole]"
130 nM,32000 nM,> 50000 nM,132 nM,"COc1ccc(-c2nc3ccc(C4CCN(C5CCN(CC(C)C)CC5)CC4)cc3n2C)cc1OC [Example 26, 2-(3,4-dimethoxyphenyl)-6-(1′-isobutyl-[1,4′-bipiperidin]-4-yl)-1-methyl-1H-benzo[d]imidazole]"
110 nM,2400 nM,> 50000 nM,106 nM,"COc1ccc(-c2nc3ccc(C4CCN(C5CCN(C6CC6)CC5)CC4)cc3n2C)cc1OC [Example 27, 6-(1′-cyclopropyl-[1,4′-bipiperidin]-4-yl)-2-(3,4-dimethoxyphenyl)-1-methyl-1H-benzo[d]imidazole]"
19 nM,2700 nM,> 50000 nM,19 nM,"COc1ccc(-c2nc3ccc(C4CCN(C5CCN(CC(C)C)CC5)CC4)cc3[nH]2)cc1OC [Example 28, 2-(3,4-dimethoxyphenyl)-6-(1′-isobutyl-[1,4′-bipiperidin]-4-yl)-1H-benzo[d]imidazole]"
